Reference: US20170101431A1, “NUCLEOSIDE DERIVATIVES FOR THE TREATMENT OF CANCER” (IDENIX PHARMACEUTICALS LLC, priority 2014, published 2017)

Experiments:
Assay type in all cases: cell-based
CCRF-CEM = assay: In vitro inhibition, CellTiter-Glo (CTG) assay, CCRF-CEM; settings: 72 hr exposure
Experimental: (§1) Cells were grown in RPMI-1640 supplemented with L-Glutamine and 10% FBS of the following cancer cell lines:
(§2) CCRF-CEM; CCRF-CEM-cytarabine resistant; HL-60;
(§3) 18, 96 well plates of each cell line were seeded with the optimized number of cells per well in a total volume of 50 μL per well. The plates were left overnight. Plate wells were seeded with 100 μL media for media control. The following day, cells were exposed to test compounds as described below. At the same time as drug exposure, a CTG assay was conducted on the 18th plate for the 0 hr count.
(§4) The compounds were added to cells and medium already on the plate to give desired final concentrations. 50 μL media were added to cell control wells, and 50 μL of mix added to vehicle control wells. 10 μM Doxorubicin was added to appropriate wells as control. Cells exposed to test compound were incubated at 37° C. for 72 hr followed by a CTG assay.
(§5) At the end of the 72 hr exposure period, plates were removed for a CellTiter-Glo (CTG) assay from a 37° C., 5% CO2 incubator and placed on the bench at room temperature for 30 mins. 100 μL of CellTiter-Glo reagent was added and mixed for 2 mins, followed by a further 10 min incubation at room temperature. Luminescence was recorded using Synergy 4.0.

[1] = system: CCRF-CEM-cytarabine resistant; assay: In vitro inhibition, CellTiter-Glo (CTG) assay, CCRF-CEM-cytarabine resistant; settings: 72 hr exposure
Experimental: as §1, §2, §3, §4, §5

HL-60 = assay: In vitro inhibition, CellTiter-Glo (CTG) assay, HL-60; settings: HL-60, 72 hr exposure
Experimental: as §1, §2, §3, §4, §5

Structure (SMILES): Cn1c(COP(=O)(OCc2cnc([N+](=O)[O-])s2)OC[C@H]2O[C@@H](n3ccc(N)nc3=O)[C@@H](O)[C@@H]2O)cnc1[N+](=O)[O-] (stereo partly drawn) [Compound 24c, [(2R,3S,4S,5R)-5-(4-amino-2-oxo-pyrimidin-1-yl)-3,4-dihydroxy-tetrahydrofuran-2-yl]methyl (3-methyl-2-nitro-imidazol-4-yl)methyl (2-nitrothiazol-5-yl)methyl phosphate]
- IC50 (CCRF-CEM; Homo sapiens): < 1000 nM
- IC50 [1]: 10 to 25 µM
- IC50 (HL-60; Homo sapiens): < 1000 nM

Structure (SMILES): CCOC(=O)[C@H](C)NP1(=O)OC[C@H]2O[C@@H](n3cnc4c(N)nc(Cl)nc43)[C@@H](F)[C@@H]2O1 (stereo partly drawn) [Compound 10, Ethyl (2S)-2-[[(4aR6R,7S,7aR)-6-(6-amino-2-chloro-purin-9-yl)-7-fluoro-2-oxo-4a,6,7,7a-tetrahydro-4H-furo[3.2-d][1,3,2]dioxaphosphinin-2-yl]amino]propanoate]
- IC50 (CCRF-CEM; Homo sapiens): < 1000 nM
- IC50 [1]: 25 to 100 µM
- IC50 (HL-60; Homo sapiens, HL-60, 72 h): 1000 to 10000 nM

Structure (SMILES): C[C@H](NP(=O)(OCc1ccc([N+](=O)[O-])s1)OC[C@H]1O[C@@H](n2ccc(N)nc2=O)[C@@H](O)[C@@H]1O)C(=O)OCc1ccccc1 (single isomer, unassigned) [24f (diastereoisomer 2)]
- IC50 (CCRF-CEM): < 1000 nM
- IC50 [1]: 10 to 25 µM
- IC50 (HL-60): 10000 to 25000 nM

Structure (SMILES): Nc1ccn([C@@H]2O[C@H](COP(=O)(NCc3ccccc3)OCc3ccc([N+](=O)[O-])o3)[C@@H](O)[C@@H]2O)c(=O)n1 (single isomer, unassigned) [25 (diastereoisomer 1)]
- IC50 (CCRF-CEM; Homo sapiens): < 1000 nM
- IC50 ([1]; 72 h): 10 to 25 µM
- IC50 (HL-60; Homo sapiens, HL-60, 72 h): 1000 to 10000 nM

Structure (SMILES): C[C@H](NP(=O)(OCc1ccc([N+](=O)[O-])s1)OC[C@H]1O[C@@H](n2ccc(N)nc2=O)[C@@H](O)[C@@H]1O)C(=O)OCc1ccccc1 (single isomer, unassigned) [24f (diastereoisomer 1)]
- IC50 (CCRF-CEM; Homo sapiens): < 1000 nM
- IC50 ([1]; 72 h): 10 to 25 µM
- IC50 (HL-60; Homo sapiens, HL-60, 72 h): 10000 to 25000 nM

Structure (SMILES): Nc1ccn([C@@H]2O[C@H](COP(=O)(OCc3ccc([N+](=O)[O-])o3)OCc3ccc([N+](=O)[O-])o3)[C@@H](O)[C@@H]2O)c(=O)n1 [Compound 24e, [(2R,3S,4S,5R)-5-(4-amino-2-oxo-pyrimidin-1-yl)-3,4-dihydroxy-tetrahydrofuran-2-yl]methyl bis[(5-nitro-2-furyl)methyl]phosphate]
- IC50 (CCRF-CEM; Homo sapiens): < 1000 nM
- IC50 [1]: 10 to 25 µM
- IC50 (HL-60; Homo sapiens): < 1000 nM

Structure (SMILES): CCOC(=O)[C@H](C)NP1(=O)OC[C@H]2O[C@@H](n3cnc4c(N)nc(Cl)nc43)[C@@H](F)[C@@H]2O1 (stereo partly drawn) [Compound 11, Ethyl (2S)-2-[[(4aR6R,7S,7aR)-6-(6-amino-2-chloro-purin-9-yl)-7-fluoro-2-oxo-4a,6,7,7a-tetrahydro-4H-furo[3.2-d][1,3,2]dioxaphosphinin-2-yl]amino]propanoate]
- IC50 (CCRF-CEM): < 1000 nM
- IC50 [1]: 1 to 10 µM
- IC50 (HL-60): < 1000 nM

Structure (SMILES): Nc1ccn([C@@H]2O[C@H](COP(=O)(OCc3cnc([N+](=O)[O-])s3)OCc3cnc([N+](=O)[O-])s3)[C@@H](O)[C@@H]2O)c(=O)n1 [Compound 24b, [(2R,3S,4S,5R)-5-(4-amino-2-oxo-pyrimidin-1-yl)-3,4-dihydroxy-tetrahydrofuran-2-yl]methyl bis[(2-nitrothiazol-5-yl)methyl]phosphate]
- IC50 (CCRF-CEM; Homo sapiens): < 1000 nM
- IC50 [1]: 10 to 25 µM
- IC50 (HL-60; Homo sapiens): < 1000 nM

Structure (SMILES): C[C@H](NP1(=O)OC[C@H]2O[C@@H](n3cnc4c(N)nc(Cl)nc43)[C@@H](F)[C@@H]2O1)C(=O)OCc1ccccc1 (single isomer, unassigned) [Compound 26a]
- IC50 (CCRF-CEM; Homo sapiens): < 1000 nM
- IC50 ([1]; 72 h): 1 to 10 µM
- IC50 (HL-60; Homo sapiens, HL-60, 72 h): < 1000 nM

Structure (SMILES): C[C@H](NP1(=O)OC[C@H]2O[C@@H](n3cnc4c(N)nc(Cl)nc43)[C@@H](F)[C@@H]2O1)C(=O)OCc1ccccc1 (single isomer, unassigned) [Compound 26b]
- IC50 (CCRF-CEM): < 1000 nM
- IC50 [1]: 1 to 10 µM
- IC50 (HL-60): < 1000 nM

Structure (SMILES): Nc1ccn([C@@H]2O[C@H](COP(=O)(NCc3ccccc3)OCc3ccc([N+](=O)[O-])o3)[C@@H](O)[C@@H]2O)c(=O)n1 (single isomer, unassigned) [25 (diastereoisomer 2)]
- IC50 (CCRF-CEM): < 1000 nM
- IC50 [1]: 10 to 25 µM
- IC50 (HL-60): 1000 to 10000 nM
